Assay results: patent publication US10959984B2, “Methods for treating cancer with RORγ inhibitors” (THE REGENTS OF THE UNIVERSITY OF CALIFORNIA, priority 2015, dated 2021)
“Also recorded” adds a separate entry of the source.

Assays:
breast cancer cells = experiment: CellTiter-GLO viability, breast cancer cells; type: cell-based, human; conditions: for growth and survival of breast cancer cells: cells having different major molecular features, 4 days
Experimental: (§1) For cell viability, cells were seeded in 96-well plates at 1500-2500 cells per well (optimum density for growth) in a total volume of 100 μl media. Serially diluted compounds in […] of media were added to the cells 12 hours later. After 4 days of incubation, Cell-Titer GLO reagents (Promega) were added and luminescence was measured on GLOMAX microplate luminometer (Promega), according to the manufacturer's instructions. All experimental points were set up as sextuplicate as biological replication and the entire experiments were repeated three times. The data are presented as percentage of viable cells with vehicle treated cells set as 100. The estimated in vitro IC50 values were calculated using GraphPad Prism 6 software.
(§2) Using a CellTiter-GLO assay, the viability of cells of different cancer types was measured after treatment with different concentrations of RORγ small molecule inhibitors for 4 days.

[1] = system: OVCAR420, T24, ECC1, HepG2, Hep3B, T98G, SUDHL4, SUDHL6, HCT116 and docetaxel-resistant C4-2B cells; experiment: CellTiter-GLO viability, cells of other cancer types; type: cell-based, human; conditions: ovarian OVCAR420, bladder T24, endometrial ECC1, liver HepG2 and Hep3B, glioblastoma T98G, DLBCL SUDHL4 and SUDHL6, colon HCT116, docetaxel-resistant C4-2B; 4 days
Experimental: as §1, §2

MCF-7-TamR cell line = experiment: Growth of tamoxifen-resistant breast cancer cells; type: cell-based, human
Experimental: as §2

[2] = system: ER-positive cells, such as MCF-7 and T47D; experiment: CellTiter-GLO viability, ER-positive breast cancer cells; type: cell-based; conditions: Homo sapiens, 96 h; ER-positive cells MCF-7 and T47D, treated for 4 days
Experimental: as §1, §2

lung cancer cells = experiment: CellTiter-GLO viability, lung cancer cells; type: cell-based, human; conditions: NSCLC cells: KRAS mutant (A427, Calu1, A549, H23, H358), BRAF mutant (H1666), EGFR mutant (HCC827, PC-9), Erlotinib-resistant (A427, H1975); 4 days
Experimental: as §1, §2

[3] = system: TNBC cells including MDA-MB468, MDA-MB231, BT20, SUM149, and HCC1937; experiment: CellTiter-GLO viability, triple-negative breast cancer cells; type: cell-based; conditions: Homo sapiens, 96 h, treated for 4 days
Experimental: as §1, §2

[4] = system: HER2-positive cells, such as SKBR3 and HCC1954; experiment: CellTiter-GLO viability, HER2-positive breast cancer cells; type: cell-based, human; conditions: SKBR3 and HCC1954, 4 days
Experimental: as §1, §2

AR and AR-V7 = experiment: AR and AR variant expression (immunoblotting, qRT-PCR); type: cell-based, human
Experimental: Total RNA was isolated from cells in 6-well or 10-cm plates or from xenograft tumors, and the cDNA was prepared, amplified and measured in the presence of SYBR as previously^49. Briefly, the fluorescent values were collected and a melting curve analysis was performed. Fold difference was calculated as described previously^49. The experiments were performed at least three times with data presented as mean values±s.d. Cell lysates were analyzed by immunoblotting with antibodies specifically recognizing RORγ, AR, AR-V7 and the indicated proteins. The PCR primers and all the antibodies used in this study are described in the Tables 3 and 4.

AR-positive PCa cells = experiment: Prostate cancer cell growth and survival (cell viability / cell growth); type: cell-based, human; conditions: for inhibition of AR-positive PCa cell growth and survival: different cell line models; for growth-inhibitory effect in prostate cancer cells: cell viability, 4 d (FIGS. 7B, 7C)
Experimental: as §1
(§3) For apoptosis, Terminal deoxynucleotidyl transferase-mediated dUTP nick end labeling (TUNEL) was performed by using in situ cell death detection kit (Roche) as previously described^56. The results are expressed as a percentage of apoptotic cell number/total cell number. Caspase-3/7 activity was measured using a luminescent caspase-Glo 3/7 assay kit (Promega Corporation, Madison, USA) following the manufacturer's instructions. For cell growth, cells were seeded in 6-well plates at 2×10^5 per well and treated as indicated. Total viable cell numbers were counted using a Coulter cell counter. For colony formation, 800 cells were seeded in a well of 6-well plates and cultured for 14 days with the medium changed every 3 days. When the cell clone grew visible, the medium was removed and the cells were fixed with […] formalin for 10 minutes. Then the plates were washed with PBS for two times and the cell colonies were stained with 0.2% crystal violet (in 10% formalin) for 15 minutes. The numbers of cell colonies were counted after washed 5 times by PBS. The above assays were performed in triplicates and the entire experiments were repeated three times.

AR-negative PCa cells = experiment: Prostate cancer cell growth and survival, AR-negative cells; type: cell-based, human
Experimental: as §1, §3

22Rv1 xenografts = experiment: 22Rv1 xenograft tumor growth; type: in vivo, mice
Experimental: Four-week-old male SCID C.B17 mice (for C4-2B and VCaP) or BALB/c nu/nu athymic mice (for 22Rv11 and PC-3) were purchased from Harlan Inc. For establishing tumors, 2×10^6 cells were suspended in total of 100 μL PBS/Matrigel (1:1) and implanted subcutaneously into the dorsal flank on both sides of the mice. Animal group size of six or more was estimated to have a high statistic power, based on power calculation (http://www.biomath.info/power/) and previous studies involving the same xenograft models^34,68. When the tumor volume was approximately 80 mm^3, the mice were randomized and then treated intraperitoneally (i.p.) with 100 μl of either vehicle or RORγ antagonists SR2211, XY011/8k (in a formulation of 15% Cremophor EL, Calbiochem, 82.5% PBS, and 2.5% DMSO) for five times per week. Tumor growth was monitored by calipers with volume calculated using the equation: (π/6 (length×width2)). Body weight during the course of the study was also monitored. At the end of the studies mice were killed and tumors were dissected and weighed. Additionally, prostate, seminal vesicle, testis, kidney, heart, lung, liver, epididymal fat pad and spleen were harvested and weighed. To assess the effect of combining RORγ antagonists and ENZ on the growth of castrated-resistant VCaP xenografts (CRPC-VCaP), first, SCID C.B17 mice were injected with VCaP cells as above to establish the tumors. Then, mice bearing tumors of approximately 180 mm^3 were surgically castrated. They were then observed for tumor regression. Once tumors grew back to the pre-castration size, mice were randomized and treated with vehicle, 5 mg kg^−1 SR2211, 10 mg […] ENZ or a combination of 5 mg kg^−1 SR2211 and 10 mg kg^−1 ENZ. ENZ was given by oral gavage as previously described^68 and SR2211 was administered i.p as above. Mice were excluded from the study if bearing no tumor or tumor with size twice larger or smaller than the mean, at the time of randomization.

AR = experiment: ARE reporter gene assay (5xARE-tk-luc) in 22Rv1 cells; type: cell-based, human
Experimental: Transient transfection and reporter gene assays were performed as previously described^49 with the following modifications. ARE reporter gene assays were performed by transfecting 22Rv1 cells with 5×ARE-tk-luc, pcDNA3.1-hAR and pCMV-β-gal for normalization. For transfection with constructs omitted for specific gene expression, corresponding empty vectors were used to ensure equal amount of total DNA used. Briefly, 22Rv1 cells seeded in 96-well plates in hormone-deprived medium supplemented with 10% cds-FBS (Hyclone) were transfected with lipofectamine 2000 (Life technology, Carlsbad, Calif., USA) and the indicated plasmid DNA. Cells were then treated at 12 hours after transfection with 3 nm R1881, indicated concentrations of RORγ antagonists or ENZ for another 24 hours before harvested for β-gal and luciferase assays. For RORE reporter gene assays, 4×AR-RORE-tk-luc was constructed by inserting four copies of the newly identified AR-RORE TTCTGGGTCA (SEQ ID NO: 1) into tk-luciferase reporter vector. AR-RORE mutant form (AR-RORE mut) contains sequences mutated from TTCTGGGTCA (SEQ ID NO: 1) to TTCTGAACGA (SEQ ID NO: 2). […] The luciferase and β-galactosidase were then analyzed with a Luciferase Assay Substrate (Promega) and Luminescent β-galactosidase Detection Kit II (Clontech). […]

## CC(=O)N1CCN(c2ccc(CN3[C@@H](C)CC[C@H](c4ccccc4)S3(=O)=O)c(F)c2)CC1 [GNE3500]
Breast cancer cells; HER2-positive HCC1954, TNBC MDA-MB468 and MDA-MB231, radiation-resistant MCF-7-C6
  growth and survival of different breast cancer cells: significant inhibition

## CCS(=O)(=O)c1ccc(CC(=O)Nc2cc(Cl)c(-c3ccccc3OC(F)(F)F)c(Cl)c2)cc1 [GSK805, N-(3,5-Dichloro-4-(2-(trifluoromethoxy)phenyl)phenyl)-2-(4-ethylsulfonylphenyl)acetamide]
[1]
  growth and survival of cancer cells of other types: significant inhibition of the growth and survival
MCF-7-TamR cell line; MCF-7 TamR cells, in combination with tamoxifen
  sensitization of tamoxifen-resistant breast cancer cells to tamoxifen: able to sensitize tamoxifen-resistant breast cancer cells to tamoxifen; also recorded: sensitized MCF-7 TamR cells to tamoxifen
[2]
  IC50: > 10 µM
Lung cancer cells
  growth and survival of lung cancer cells: strongly inhibited the growth and survival of lung cancer cells
[3]
  IC50: 1 to 10 µM
Breast cancer cells
  growth and survival of breast cancer cells: strongly inhibited the growth and survival of breast cancer cells
[4]
  inhibition of HER2-positive cells: relatively strong inhibition

## C[C@]12CC[C@H](O)C[C@H]1CC[C@@H]1[C@@H]2CC[C@]2(C)[C@@H](c3ccc(=O)oc3)CC[C@]12O [bufalin]
AR and AR-V7; C4-2B cells treated with bufalin
  AR expression: dose-dependent inhibition of AR expression

## CCN1C(=O)c2cccc3c(S(=O)(=O)Nc4ccc(/N=N/c5ccccc5)cc4)ccc1c23 [7k, (E)-1-ethyl-2-oxo-N-(4′-(phenyldiazenyl)phenyl)-1,2-dihydrobenzo[cd]indole-6-sulfonamide]
AR-positive PCa cells
  inhibition of AR-positive PCa cell growth and survival: potent inhibition of AR-positive PCa cell growth and survival
AR-negative PCa cells
  inhibition of cell growth and survival in AR-negative cells: not in the AR-negative cells

## CCN1C(=O)c2cccc3c(S(=O)(=O)Nc4ccc(OC)c(OC)c4)ccc1c23 [XY011, N-(3′,4′-dimethoxyphenyl)-1-ethyl-2-oxo-1,2-dihydrobenzo[cd]indole-6-sulfonamide]
AR-positive PCa cells
  inhibition of AR-positive PCa cell growth and survival: potent inhibition of AR-positive PCa cell growth and survival
22Rv1 xenografts; XY011 20 mg/kg, i.p., 5 times a week (FIG. 23B)
  tumor growth inhibition: Strong tumor growth inhibition
22Rv1 xenografts; nude mice, SR2211 5 mg/kg i.p., 8k/E11 10 and 20 mg/kg i.p., five times per week (FIG. 3A)
  growth of xenograft tumors: strongly inhibited growth of xenograft tumors
AR and AR-V7; C4-2B and VCaP cells, 72 h
  expression of AR and AR-V7: potently inhibited the expression of AR and AR-V7 in a dose-dependent manner
AR-negative PCa cells
  inhibition of cell growth and survival in AR-negative cells: not in the AR-negative cells

## CC(=O)N1CCN(Cc2ccc(-c3ccc(C(O)(C(F)(F)F)C(F)(F)F)cc3)cc2)CC1.Cl [SR1555, 1-(4-((4′-(1,1,1,3,3,3-hexafluoro-2-hydroxypropan-2-yl)-[1,1′-biphenyl]-4-yl)methyl)piperazin-1-yl)ethanone, monohydrochloride]
AR-positive PCa cells
  growth-inhibitory effect in prostate cancer cells: significant inhibitory effects with slightly lower potencies
  inhibition of AR-positive PCa cell growth and survival: potent inhibition of AR-positive PCa cell growth and survival
AR-negative PCa cells
  inhibition of cell growth and survival in AR-negative cells: not in the AR-negative cells

## SR3335
AR-positive PCa cells
  growth-inhibitory effect in prostate cancer cells: did not display any significant effect
  inhibition of AR-positive PCa cell growth and survival: did not show any significant growth inhibition

## C[C@]1(O)CC[C@H]2[C@@H]3CCC4=CC(=O)CCC4=C3C=C[C@@]21C [R1881]
AR
  response of multimerized ARE-driven reporter: activated

## CCN1C(=O)c2cccc3c(S(=O)(=O)Nc4ccc5ccncc5c4)ccc1c23 [6f, 1-Ethyl-N-(isoquinolin-7′-yl)-2-oxo-1,2-dihydrobenzo[cd]indole-6-sulfonamide]
AR-positive PCa cells
  inhibition of AR-positive PCa cell growth and survival: potent inhibition of AR-positive PCa cell growth and survival
AR-negative PCa cells
  inhibition of cell growth and survival in AR-negative cells: not in the AR-negative cells

## NS(=O)(=O)c1ccc(CC(=O)Nc2cc(Cl)c(-c3ccccc3OC(F)(F)F)c(Cl)c2)cc1 [GSK9b, N-(2,6-dichloro-2′-trifluoromethoxy)-[1,1′-biphenyl]-4-yl-2-(4-sulfamoylphenyl)acetamide]
[1]
  growth and survival of cancer cells of other types: significant inhibition of the growth and survival
Breast cancer cells
  growth and survival of breast cancer cells: strongly inhibited the growth and survival of breast cancer cells; also recorded: slightly less effective than GSK805

## CC/C(=C(\c1ccccc1)c1ccc(OCCN(C)C)cc1)c1ccccc1 [tamoxifen]
MCF-7-TamR cell line; MCF-7-TamR, 1 μM of 4(OH)-tamoxifen
  growth inhibitory effect of tamoxifen alone: did not show any inhibitory effect
MCF-7-TamR cell line; tamoxifen-resistant breast cancer cells, combined with SR2211 or GSK805
  growth inhibitory effect of tamoxifen in combination with RORγ inhibitors: synergistic growth inhibitory effect
